A word on the pIC50: it is the negative decadic logarithm of the IC50, by convention in mol/L.

In patent US7265152B2 (ViroPharma Incorporated, priority 2002, dated 2007) one finds EC50 and IC50 data, which are given here for 27 compounds.

The subject of experiment [1] is HCV replicon (BB7 sequence) in Huh-7-Clone A cells. As to the kind of experiment: HCV replicon assay: ELISA of NS5A protein in replicon-containing cells (Inhibition of Viral RNA Replication). Type of experiment: cell-based. The following applies: read-out: Replicon. The essentials:
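EC50 taken from an 8-point serially diluted dose curve, with NS5A level as read-out: fixed cells probed with primary monoclonal and HRP-conjugated secondary, TMB developed 30 min, OD 650 nm. Compound exposure 72 h in Huh-7-Clone A replicon cells (BB7 sequence).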

In a further experiment the target is T1, HCV NS5B (Hepatitis C virus genotype 1b, UniProt Q9WMX2).
T1 construct: fusion protein, of which the carboxyl terminal 21 amino acids were removed to enhance its solubility; His tag (GSHHHHHH); made in house; host or cells: E. coli
Description: Inhibition of viral RNA-dependent RNA polymerase (RdRp), in vitro biochemical assay. On the set-up: species or system HCV genotype 1b virus (BB7). The following applies: read-out: HCV pol-BB7 IC50. Put shortly:
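IC50 values are the concentrations that halve in vitro RNA synthesis by HCV NS5B polymerase. The enzyme was a C-terminally truncated (Δ21), His-tagged genotype 1b (BB7 consensus) protein purified from E. coli.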

Where [2] appears, read: Hepatitis C virus, Huh-7-Clone A, NS5A ELISA, 72-hour incubation, ranges of EC50.
Where [3] appears, read: purified His-tagged NS5B (BB7), carboxyl terminal 21 amino acids removed.
The mark [4] stands for this setting: Hepatitis C virus, HCV replicon assay, ranges of EC50.
The mark [5] stands for this setting: HCV NS5B RdRp, BB7, class symbols A-D.
[6] abbreviates: Hepatitis C virus, HCV replicon, range of EC50.
Setting [7] is: HCV NS5B RdRp, BB7, reported as range class.
Where [8] appears, read: Hepatitis C virus, ranges of EC50 in HCV replicon assay.
[9] abbreviates: HCV NS5B RdRp, BB7, activity class.
Setting [10] is: Hepatitis C virus, HCV replicon assay, ranges of 50% effective concentration (EC50).
The mark [11] stands for this setting: HCV NS5B polymerase, BB7 (genotype 1b), values given as range classes A-D.
Where [12] appears, read: HCV replicon assay, ranges of EC50.

pEC50, pIC50: −log10 of the molar value. Where two headings read alike, the source gives them in different places.

For `CNC(=O)c1c(-c2ccc(F)cc2)oc2cc(N(Cc3cscn3)S(C)(=O)=O)c(OC(C)C)cc12` [Example 36, 2-(4-Fluoro-phenyl)-5-isopropoxy-6-(methanesulfonyl-thiazol-4-ylmethyl-amino)-benzofuran-3-carboxylic acid methylamide], the pEC50 in experiment [1] (setting [2]) is > 6.00. In addition, the pIC50 on HCV NS5B (setting [3]) was ≥ 6.30.
Regarding `CNC(=O)c1c(-c2ccc(F)cc2)oc2cc(C#N)c(OC)cc12` [Example 266, 6-Cyano-2-(4-fluoro-phenyl)-5-methoxy-benzofuran-3-carboxylic acid methylamide], the pEC50 in experiment [1] (setting [4]) was > 6.00. For the same compound, the pIC50 on HCV NS5B (setting [5]) is ≥ 6.30.
`CNC(=O)c1c(-c2ccc(F)cc2)oc2cc(-c3noc(C)n3)c(OC(C)C)cc12` [Example 198, 2-(4-Fluoro-phenyl)-5-isopropoxy-6-(5-methyl-[1,2,4]oxadiazol-3-yl)-benzofuran-3-carboxylic acid methylamide]: the pEC50 in experiment [1] (setting [6]) is > 6.00. For the same compound, on HCV NS5B (setting [7]), the pIC50 was ≥ 6.30.
In the case of `CCc1ccc(-c2oc3ccc(F)cc3c2C(=O)NC)cc1` [Example 83, 2-(4-Ethyl-phenyl)-5-fluoro-benzofuran-3-carboxylic acid methylamide], in experiment [1] (setting [2]), the pEC50 is > 5.00. Further, the pIC50 on HCV NS5B (setting [3]) was ≥ 6.30.
For `CNC(=O)c1c(-c2ccc(F)cc2)oc2cc(N3CCOCC3)c(OCc3nccs3)cc12` [Example 33, 2-(4-Fluoro-phenyl)-6-morpholin-4-yl-5-(thiazol-2-ylmethoxy)-benzofuran-3-carboxylic acid methylamide] the same measures were > 6.00 and ≥ 6.30.
As to `CNC(=O)c1c(-c2ccc(F)cc2)oc2cc(-c3ccc(F)nc3)c(OC(C)C)cc12` [Example 161, 2-(4-Fluoro-phenyl)-6-(6-fluoro-pyridin-3-yl)-5-isopropoxy-benzofuran-3-carboxylic acid methylamide], the pEC50 in experiment [1] (setting [8]) was > 5.00. In addition, on HCV NS5B (HCV NS5B RdRp, BB7 genotype 1b), the pIC50 is ≥ 6.30.
On the same counts, the results for `CNC(=O)c1c(-c2ccc(F)cc2)oc2cc(C)c(OC(C)C(=O)O)cc12` (stereo not drawn) [Example 97, 2-[2-(4-Fluoro-phenyl)-6-methyl-3-methylcarbamoyl-benzofuran-5-yloxy]-propionic acid] are < 4.52 and 4.52 to 5.30.
Take `CNC(=O)c1c(-c2ccc(F)cc2)oc2cc(C(C)=O)c(C)cc12` [Example 301, 6-Acetyl-2-(4-fluoro-phenyl)-5-methyl-benzofuran-3-carboxylic acid methylamide]: the pEC50 in experiment [1] (setting [4]) was > 5.00. The pIC50 at HCV NS5B (setting [5]) was ≥ 6.30.
On to `CNC(=O)c1c(-c2ccc(F)cc2)oc2cc(N3CCC(F)(F)CC3)c(OC(C)C)cc12` [Example 170, 6-(4,4-Difluoro-piperidin-1-yl)-2-(4-fluoro-phenyl)-5-isopropoxy-benzofuran-3-carboxylic acid methylamide], for which the pEC50 in experiment [1] (setting [8]) was > 6.00. Also, on HCV NS5B (HCV NS5B RdRp, BB7 genotype 1b), the pIC50 is 4.52 to 5.30.
For `CNC(=O)c1c(-c2ccc(F)cc2)oc2cc(N(C)S(C)(=O)=O)c(OCC(C)O)cc12` (stereo not drawn) [Example 370, 2-(4-Fluoro-phenyl)-5-(2-hydroxy-propoxy)-6-(methanesulfonyl-methyl-amino)-benzofuran-3-carboxylic acid methylamide], the pEC50 in experiment [1] (setting [4]) was > 6.00. Moreover, the pIC50 at HCV NS5B (setting [9]) was ≥ 6.30.
For `CCc1cc2c(C(=O)NC)c(-c3ccc(F)cc3)oc2cc1C(C)=O` [Example 340, 6-Acetyl-5-ethyl-2-(4-fluoro-phenyl)-benzofuran-3-carboxylic acid methylamide], the pEC50 in experiment [1] (setting [4]) was > 6.00. Also, the pIC50 at HCV NS5B (setting [9]) is ≥ 6.30.
In the case of `CNC(=O)c1c(-c2ccc(F)cc2)oc2cc(N3CCOCC3)c(OCc3cc(C)on3)cc12` [Example 218, 2-(4-Fluoro-phenyl)-5-(5-methyl-isoxazol-3-ylmethoxy)-6-morpholin-4-yl-benzofuran-3-carboxylic acid methylamide], the pEC50 in experiment [1] (setting [6]) was > 6.00. Besides, the pIC50 at HCV NS5B (setting [7]) was ≥ 6.30.
Take `CNC(=O)c1c(-c2ccc(F)cc2)oc2cc(N3CCOCC3)c(OC(C)C)cc12` [Example 24, 2-(4-Fluoro-phenyl)-5-isopropoxy-6-morpholin-4-yl-benzofuran-3-carboxylic acid methylamide]: in experiment [1] (setting [2]), the pEC50 was > 6.00. Further, the pIC50 at HCV NS5B (setting [3]) is ≥ 6.30.
Turning to `CNC(=O)c1c(-c2ccc(F)cc2)oc2cc(C(C)(C)NC(C)=O)c(OC)cc12` [Example 385, 6-(1-Acetylamino-1-methyl-ethyl)-2-(4-fluoro-phenyl)-5-methoxy-benzofuran-3-carboxylic acid methylamide], in experiment [1] (setting [10]), the pEC50 was > 6.00. In addition, the pIC50 on HCV NS5B (setting [11]) was ≥ 6.30.
As for `CNC(=O)c1c(-c2ccc(F)cc2)oc2cc(N(CC(C)C)S(C)(=O)=O)c(O)cc12` [Example 326, 2-(4-Fluoro-phenyl)-5-hydroxy-6-(isobutyl-methanesulfonyl-amino)-benzofuran-3-carboxylic acid methylamide], the pEC50 in experiment [1] (setting [4]) was > 4.52. At HCV NS5B (setting [5]), the pIC50 was 5.30 to 6.30.
Turning to “2-(4-Fluoro-phenyl)-5-methoxy-6-(2H-[1,2,4]triazol-3-yl)-benzofuran-3-carboxylic acid methylamide [Example 358]”, the pEC50 in experiment [1] (setting [12]) was > 6.00. Also, at HCV NS5B (setting [9]), the pIC50 is ≥ 6.30.
For `CNC(=O)c1c(-c2ccc(F)cc2)oc2cc(-c3cc(COC(C)C)on3)c(OC)cc12` [Example 372, 2-(4-Fluoro-phenyl)-6-(5-isopropoxymethyl-isoxazol-3-yl)-5-methoxy-benzofuran-3-carboxylic acid methylamide], the pEC50 in experiment [1] (setting [4]) is > 6.00. Moreover, the pIC50 at HCV NS5B (setting [9]) is ≥ 6.30.
In the case of `CNC(=O)c1c(-c2ccc(F)cc2)oc2cc(-c3c(C)noc3C)c(OC)cc12` [Example 28, 6-(3,5-Dimethyl-isoxazol-4-yl)-2-(4-fluoro-phenyl)-5-methoxy-benzofuran-3-carboxylic acid methylamide], in experiment [1] (setting [2]), the pEC50 was > 6.00. The pIC50 on HCV NS5B (setting [3]) is ≥ 6.30.
With `CNC(=O)c1c(-c2ccc(F)cc2)oc2cc(N(Cc3csc(C)n3)S(C)(=O)=O)c(OC(C)C)cc12` [Example 271, 2-(4-Fluoro-phenyl)-5-isopropoxy-6-[methanesulfonyl-(2-methyl-thiazol-4-ylmethyl)-amino]-benzofuran-3-carboxylic acid methylamide], in experiment [1] (setting [4]), the pEC50 is > 5.00. For the same compound, the pIC50 at HCV NS5B (setting [5]) was ≥ 6.30.
In the case of “2-(4-Fluoro-phenyl)-6-(1H-imidazol-4-yl)-5-methoxy-benzofuran-3-carboxylic acid methylamide [Example 295]”, the pEC50 in experiment [1] (setting [12]) is > 5.00. At HCV NS5B (setting [5]), the pIC50 was ≥ 6.30.
Consider `CNC(=O)c1c(-c2ccc(F)cc2)oc2cc(NC(C)C)c(OC(C)C)cc12` [Example 114, 2-(4-Fluoro-phenyl)-5-isopropoxy-6-isopropylamino-benzofuran-3-carboxylic acid methylamide], for which, in experiment [1] (setting [8]), the pEC50 was > 6.00. The pIC50 at HCV NS5B (HCV NS5B RdRp, BB7 genotype 1b) is ≥ 6.30.
`CNC(=O)c1c(-c2ccc(F)cc2)oc2cc(OC)c(OC(C)C)cc12` [Example 158, 2-(4-Fluoro-phenyl)-5-isopropoxy-6-methoxy-benzofuran-3-carboxylic acid methylamide]: the pEC50 in experiment [1] (setting [8]) is > 5.00. At HCV NS5B (HCV NS5B RdRp, BB7 genotype 1b), the pIC50 was ≥ 6.30.
Take `CNC(=O)c1c(-c2ccccc2Cl)oc2ccc(OC)cc12` [Example 66, 2-(2-Chloro-phenyl)-5-methoxy-benzofuran-3-carboxylic acid methylamide]: the pEC50 in experiment [1] (setting [2]) is < 4.52. Also, the pIC50 at HCV NS5B (setting [3]) was 4.52 to 5.30.
For the compound `CCOC(=O)c1csc(CN(c2cc3oc(-c4ccc(F)cc4)c(C(=O)NC)c3cc2OC(C)C)S(C)(=O)=O)n1` [Example 286, 2-({[2-(4-Fluoro-phenyl)-5-isopropoxy-3-methylcarbamoyl-benzofuran-6-yl]-methanesulfonylamino}-methyl)-thiazole-4-carboxylic acid ethyl ester], in experiment [1] (setting [4]), the pEC50 was > 5.00. Also, the pIC50 at HCV NS5B (setting [5]) was ≥ 6.30.
Regarding `CNC(=O)c1c(-c2ccc(F)cc2)oc2cc(N(C)S(C)(=O)=O)c(OCc3ccc4c(c3)OC(C)(C)OC4=O)cc12` [Example 302, 5-(2,2-Dimethyl-4-oxo-4H-benzo[1,3]dioxin-7-ylmethoxy)-2-(4-fluoro-phenyl)-6-(methanesulfonyl-methyl-amino)-benzofuran-3-carboxylic acid methylamide], in experiment [1] (setting [4]), the pEC50 was > 6.00. For the same compound, the pIC50 on HCV NS5B (setting [5]) was ≥ 6.30.
With `CNC(=O)c1c(-c2ccc(F)cc2)oc2cc(N(C)C)c(OC)cc12` [Example 394, 6-Dimethylamino-2-(4-fluoro-phenyl)-5-methoxy-benzofuran-3-carboxylic acid methylamide], the pEC50 in experiment [1] (setting [10]) was > 6.00. In addition, the pIC50 at HCV NS5B (setting [11]) is ≥ 6.30.
Regarding `CNC(=O)c1c(-c2ccccc2)oc2ccc(C#N)cc12` [Example 26, 5-Cyano-2-phenyl-benzofuran-3-carboxylic acid methylamide], in experiment [1] (setting [2]), the pEC50 is > 4.52. In addition, at HCV NS5B (setting [3]), the pIC50 is 4.52 to 5.30.
